The CheMixHub viscosity set

Assay: xn = mol fraction of the nth substance listed

CC(C)=O + O
101 kPa
Conditions | viscosity [mPa·s]
293.15 K, x1 = 0.047 | 1.328
293.15 K, x1 = 0.095 | 1.549
293.15 K, x1 = 0.124 | 1.586
293.15 K, x1 = 0.152 | 1.588
293.15 K, x1 = 0.192 | 1.504
293.15 K, x1 = 0.328 | 1.129
293.15 K, x1 = 0.49 | 0.746
293.15 K, x1 = 0.687 | 0.497
293.15 K, x1 = 0.85 | 0.404
298.15 K, x1 = 0.0201 | 1.047
298.15 K, x1 = 0.2 | 1.343
298.15 K, x1 = 0.4 | 0.88
298.15 K, x1 = 0.6 | 0.543
298.15 K, x1 = 0.8 | 0.372
303.15 K, x1 = 0.047 | 1.027
303.15 K, x1 = 0.095 | 1.179
303.15 K, x1 = 0.124 | 1.214
303.15 K, x1 = 0.152 | 1.212
303.15 K, x1 = 0.192 | 1.148
303.15 K, x1 = 0.328 | 0.901
303.15 K, x1 = 0.49 | 0.625
303.15 K, x1 = 0.687 | 0.435
303.15 K, x1 = 0.85 | 0.367
308.15 K, x1 = 0.0499 | 0.9532
308.15 K, x1 = 0.0702 | 1.015
308.15 K, x1 = 0.1 | 1.064
308.15 K, x1 = 0.12 | 1.08
308.15 K, x1 = 0.1499 | 1.084
308.15 K, x1 = 0.1701 | 1.069
308.15 K, x1 = 0.1999 | 1.039
308.15 K, x1 = 0.22 | 1.012
308.15 K, x1 = 0.2499 | 0.9681
308.15 K, x1 = 0.2701 | 0.9345
308.15 K, x1 = 0.3001 | 0.8823
308.15 K, x1 = 0.3499 | 0.7933
308.15 K, x1 = 0.4 | 0.7101
308.15 K, x1 = 0.4502 | 0.6353
308.15 K, x1 = 0.5001 | 0.5698
308.15 K, x1 = 0.6 | 0.4627
308.15 K, x1 = 0.7 | 0.3849
308.15 K, x1 = 0.7999 | 0.3262
308.15 K, x1 = 0.9 | 0.2729
313.15 K, x1 = 0.0201 | 0.7526
313.15 K, x1 = 0.047 | 0.826
313.15 K, x1 = 0.0499 | 0.8529
313.15 K, x1 = 0.0702 | 0.9032
313.15 K, x1 = 0.095 | 0.929
313.15 K, x1 = 0.1 | 0.9489
313.15 K, x1 = 0.12 | 0.961
313.15 K, x1 = 0.124 | 0.945
313.15 K, x1 = 0.1499 | 0.9659
313.15 K, x1 = 0.152 | 0.955
313.15 K, x1 = 0.1701 | 0.9492
313.15 K, x1 = 0.192 | 0.908
313.15 K, x1 = 0.1999 | 0.9232
313.15 K, x1 = 0.22 | 0.9029
313.15 K, x1 = 0.2499 | 0.8658
313.15 K, x1 = 0.2701 | 0.8358
313.15 K, x1 = 0.3001 | 0.792
313.15 K, x1 = 0.328 | 0.737
313.15 K, x1 = 0.3499 | 0.7155
313.15 K, x1 = 0.4 | 0.6429
313.15 K, x1 = 0.4502 | 0.5785
313.15 K, x1 = 0.49 | 0.536
313.15 K, x1 = 0.5001 | 0.5234
313.15 K, x1 = 0.6 | 0.4276
313.15 K, x1 = 0.687 | 0.386
313.15 K, x1 = 0.7 | 0.361
313.15 K, x1 = 0.7999 | 0.302
313.15 K, x1 = 0.85 | 0.333
313.15 K, x1 = 0.9 | 0.2597
318.15 K, x1 = 0.0201 | 0.6793
318.15 K, x1 = 0.0499 | 0.7678
318.15 K, x1 = 0.0702 | 0.8166
318.15 K, x1 = 0.1 | 0.8463
318.15 K, x1 = 0.12 | 0.8495
318.15 K, x1 = 0.1499 | 0.8555
318.15 K, x1 = 0.1701 | 0.8465
318.15 K, x1 = 0.1999 | 0.8249
318.15 K, x1 = 0.22 | 0.8044
318.15 K, x1 = 0.2499 | 0.7773
318.15 K, x1 = 0.2701 | 0.7529
318.15 K, x1 = 0.3001 | 0.7134
318.15 K, x1 = 0.3499 | 0.6478
318.15 K, x1 = 0.4 | 0.5851
318.15 K, x1 = 0.4502 | 0.5251
318.15 K, x1 = 0.5001 | 0.476
318.15 K, x1 = 0.6 | 0.3869
318.15 K, x1 = 0.7 | 0.3317
318.15 K, x1 = 0.7999 | 0.2774
318.15 K, x1 = 0.9 | 0.2431
323.15 K, x1 = 0.047 | 0.746
323.15 K, x1 = 0.095 | 0.834
323.15 K, x1 = 0.124 | 0.853
323.15 K, x1 = 0.152 | 0.859
323.15 K, x1 = 0.192 | 0.808
323.15 K, x1 = 0.328 | 0.682
323.15 K, x1 = 0.49 | 0.499
323.15 K, x1 = 0.687 | 0.367
323.15 K, x1 = 0.85 | 0.32

CC(C)=O + c1ccccc1
Conditions | viscosity [mPa·s]
293.15 K, 101 kPa, x1 = 0.086 | 0.598
293.15 K, 101 kPa, x1 = 0.1 | 0.592
293.15 K, 101 kPa, x1 = 0.1304 | 0.581
293.15 K, 101 kPa, x1 = 0.248 | 0.535
293.15 K, 101 kPa, x1 = 0.269 | 0.528
293.15 K, 101 kPa, x1 = 0.287 | 0.513
293.15 K, 101 kPa, x1 = 0.4005 | 0.47
293.15 K, 101 kPa, x1 = 0.408 | 0.471
293.15 K, 101 kPa, x1 = 0.5661 | 0.416
293.15 K, 101 kPa, x1 = 0.587 | 0.414
293.15 K, 101 kPa, x1 = 0.6783 | 0.385
293.15 K, 101 kPa, x1 = 0.767 | 0.376
293.15 K, 101 kPa, x1 = 0.7899 | 0.357
293.15 K, 101 kPa, x1 = 0.864 | 0.362
293.15 K, 101 kPa, x1 = 0.9053 | 0.332
293.16 K, 101 kPa, x1 = 0.1304 | 0.581
293.16 K, 101 kPa, x1 = 0.287 | 0.513
293.16 K, 101 kPa, x1 = 0.4005 | 0.47
293.16 K, 101 kPa, x1 = 0.5661 | 0.416
293.16 K, 101 kPa, x1 = 0.6783 | 0.385
293.16 K, 101 kPa, x1 = 0.7899 | 0.357
293.16 K, 101 kPa, x1 = 0.9053 | 0.332
298.15 K, 101 kPa, x1 = 0.092 | 0.5569
298.15 K, 101 kPa, x1 = 0.1304 | 0.534
298.15 K, 101 kPa, x1 = 0.1895 | 0.5185
298.15 K, 101 kPa, x1 = 0.2364 | 0.4968
298.15 K, 101 kPa, x1 = 0.287 | 0.484
298.15 K, 101 kPa, x1 = 0.2986 | 0.4766
298.15 K, 101 kPa, x1 = 0.3321 | 0.4654
298.15 K, 101 kPa, x1 = 0.4005 | 0.446
298.15 K, 101 kPa, x1 = 0.4076 | 0.4368
298.15 K, 101 kPa, x1 = 0.4692 | 0.4188
298.15 K, 101 kPa, x1 = 0.49 | 0.4158
298.15 K, 101 kPa, x1 = 0.5552 | 0.3985
298.15 K, 101 kPa, x1 = 0.5608 | 0.3975
298.15 K, 101 kPa, x1 = 0.5661 | 0.401
298.15 K, 101 kPa, x1 = 0.6629 | 0.3692
298.15 K, 101 kPa, x1 = 0.6783 | 0.375
298.15 K, 101 kPa, x1 = 0.7262 | 0.3546
298.15 K, 101 kPa, x1 = 0.7691 | 0.3451
298.15 K, 101 kPa, x1 = 0.7899 | 0.351
298.15 K, 101 kPa, x1 = 0.808 | 0.3384
298.15 K, 101 kPa, x1 = 0.8946 | 0.3203
298.15 K, 101 kPa, x1 = 0.9053 | 0.33
298.16 K, 101 kPa, x1 = 0.1304 | 0.534
298.16 K, 101 kPa, x1 = 0.287 | 0.484
298.16 K, 101 kPa, x1 = 0.4005 | 0.446
298.16 K, 101 kPa, x1 = 0.5661 | 0.401
298.16 K, 101 kPa, x1 = 0.6783 | 0.375
298.16 K, 101 kPa, x1 = 0.7899 | 0.351
298.16 K, 101 kPa, x1 = 0.9053 | 0.33
303.15 K, 101 kPa, x1 = 0.086 | 0.523
303.15 K, 101 kPa, x1 = 0.1 | 0.518
303.15 K, 101 kPa, x1 = 0.248 | 0.475
303.15 K, 101 kPa, x1 = 0.269 | 0.469
303.15 K, 101 kPa, x1 = 0.2875 | 0.456
303.15 K, 101 kPa, x1 = 0.408 | 0.423
303.15 K, 101 kPa, x1 = 0.4185 | 0.417
303.15 K, 101 kPa, x1 = 0.5098 | 0.392
303.15 K, 101 kPa, x1 = 0.5498 | 0.382
303.15 K, 101 kPa, x1 = 0.587 | 0.375
303.15 K, 101 kPa, x1 = 0.6652 | 0.356
303.15 K, 101 kPa, x1 = 0.767 | 0.346
303.15 K, 101 kPa, x1 = 0.7851 | 0.331
303.15 K, 101 kPa, x1 = 0.864 | 0.332
303.15 K, 101 kPa, x1 = 0.8895 | 0.312
303.16 K, 101 kPa, x1 = 0.2875 | 0.456
303.16 K, 101 kPa, x1 = 0.4185 | 0.417
303.16 K, 101 kPa, x1 = 0.5098 | 0.392
303.16 K, 101 kPa, x1 = 0.5498 | 0.382
303.16 K, 101 kPa, x1 = 0.6652 | 0.356
303.16 K, 101 kPa, x1 = 0.7851 | 0.331
303.16 K, 101 kPa, x1 = 0.8895 | 0.312
307.35 K, 101.33 kPa, x1 = 0.1115 | 0.492
307.35 K, 101.33 kPa, x1 = 0.3573 | 0.419
307.35 K, 101.33 kPa, x1 = 0.4938 | 0.382
307.35 K, 101.33 kPa, x1 = 0.5562 | 0.374
307.35 K, 101.33 kPa, x1 = 0.6464 | 0.352
307.35 K, 101.33 kPa, x1 = 0.8853 | 0.308
313.15 K, 101 kPa, x1 = 0.086 | 0.464
313.15 K, 101 kPa, x1 = 0.1 | 0.46
313.15 K, 101 kPa, x1 = 0.248 | 0.424
313.15 K, 101 kPa, x1 = 0.269 | 0.419
313.15 K, 101 kPa, x1 = 0.408 | 0.378
313.15 K, 101 kPa, x1 = 0.587 | 0.344
313.15 K, 101 kPa, x1 = 0.767 | 0.32
313.15 K, 101 kPa, x1 = 0.864 | 0.309
323.15 K, 101 kPa, x1 = 0.086 | 0.436
323.15 K, 101 kPa, x1 = 0.1 | 0.436
323.15 K, 101 kPa, x1 = 0.248 | 0.404
323.15 K, 101 kPa, x1 = 0.269 | 0.4
323.15 K, 101 kPa, x1 = 0.408 | 0.361
323.15 K, 101 kPa, x1 = 0.587 | 0.33
323.15 K, 101 kPa, x1 = 0.767 | 0.309
